According to patent EP3315130A1, “HYALURONIC ACID COMPOSITION INCLUDING MEPIVACAINE” (Laboratoires Vivacy, priority 2016, dated 2018):

Legend:
oedème = assay: Clinical evaluation of occurrence and severity of oedema after injection of hyaluronic acid compositions; parameters: species or system patients; conditions: human, in vivo
Protocol: (§1) Deux types de composition aqueuse à base d'acide hyaluronique (concentration 20 mg/g) sont préparés.
(§2) Toutes les compositions sont issues d'un mélange monophasique tel que celui décrit dans la demande de brevet WO 2009/071697 au nom de la demanderesse, et comprennent du mannitol (concentration 35 mg/g).
(§3) Deux groupes A et B de 64 patients chacun sont formés (128 patients au total).
(§4) Le groupe B est injecté au niveau du sillon naso-génien au moyen de la composition aqueuse à base d'acide hyaluronique comprenant du mannitol et de la mépivacaïne

ecchymose = assay: Clinical evaluation of occurrence and severity of ecchymosis after injection of hyaluronic acid compositions; parameters: species or system patients; conditions: human, in vivo
Protocol: as §1, §2, §3, §4

mépïvacaïne
OEdème - Aucun (oedème): 63
OEdème - Léger ou modéré (oedème): 1
OEdème - Sévère (oedème): 0
Ecchymose - Aucune (ecchymose): 42
Ecchymose - Légère ou modérée (ecchymose): 22
Ecchymose - Sévère (ecchymose): 0
